Source: publication PMC9653173, “Trotabresib (CC-90010) in combination with adjuvant temozolomide or concomitant temozolomide plus radiotherapy in patients with newly diagnosed glioblastoma” (Neuro-Oncology Advances, 2022)
Several values for one entry are separate records, joined by “and”; a condition that tells them apart may be missing. Equal values may be shown once. Read-outs that look alike come from different tables or passages of the source.

System: patients with newly diagnosed glioblastoma
Settings: for TEAEs leading to discontinuation of the labelled study drug(s), patients: February 20, 2022 cutoff
Excerpt: The phase Ib, dose-escalation part of this study explored escalating oral doses of trotabresib in combination with TMZ in the adjuvant setting and with TMZ plus RT in the concomitant setting. […] Dose-escalation decisions were made by the safety review committee, based on all available safety, pharmacokinetics, pharmacodynamics, and preliminary efficacy information, and a calculation of risk assessment using a Bayesian logistic regression model.
The primary endpoints of the study were to determine the safety and tolerability, maximum tolerated dose, and/or recommended phase II dose (RP2D) of trotabresib in combination with TMZ as adjuvant therapy, and with TMZ and RT as concomitant therapy. […] Trotabresib pharmacodynamics was an exploratory endpoint.
Adverse events (AEs) were classified using the Medical Dictionary for Regulatory Activities v18.1 or higher system organ class and preferred term. Severity of AEs was graded based on the patient’s symptoms according to the National Cancer Institute Common Terminology Criteria for Adverse Events v5.0.[35] Dose-limiting toxicities (DLTs) were defined as any of the toxicities described in Supplementary Table S2 occurring within the DLT assessment period (cycle 1 [28 days]), unless the event could clearly be determined to be unrelated to trotabresib. Screening MRI scans were performed after surgical resection and within 28 days (+3 days) prior to initiation of study treatment. Subsequent tumor assessments by MRI or CT were performed at week 10 during the concomitant treatment period and at the end of every other treatment cycle from cycle 2 onwards during the adjuvant and trotabresib monotherapy treatment periods. Best overall response (BOR) was evaluated as complete response (CR), partial response (PR), SD, progressive disease (PD), or not evaluable, according to Response Assessment in Neuro-Oncology criteria for high-grade glioma.[36] Plasma samples were collected during the first treatment cycle for investigation of trotabresib pharmacokinetics and pharmacodynamics. Plasma pharmacokinetic parameters assessed included peak plasma concentration (Cmax), time to peak plasma concentration (tmax), area under the plasma concentration–time curve (AUC), and terminal half-life (t½). Pharmacodynamic markers assessed included blood levels of CCR1 and HEXIM1 mRNA, which are established markers of BET inhibitor target engagement.[17],[22],[37],[38]

[1] = adjuvant overall (N = 18), related to labelled drug(s)

Cn1cc(-c2cc(S(C)(=O)=O)ccc2OCC2CC2)c2ccccc2c1=O [Trotabresib]
TRAEs leading to discontinuation of TMZ, related to labelled drug(s) (adjuvant 30 mg (n = 6)): 1 (17) 1 (17) 1 (17) n (%)
TRAEs leading to discontinuation of any study drug, related to labelled drug(s) (adjuvant 30 mg (n = 6)): 1 (17) 1 (17) 1 (17) n (%)
TRAEs leading to discontinuation of trotabresib, related to labelled drug(s) (adjuvant 30 mg (n = 6)): 1 (17) 1 (17) 1 (17) n (%)
TEAEs leading to discontinuation of the labelled study drug(s), patients (adjuvant 30 mg (n = 6)): 1 (17) 1 (17) 1 (17) n (%)
TEAEs leading to discontinuation of the labelled study drug(s), patients (adjuvant 45 mg (n = 7)): 1 (14) 1 (14) 1 (14) n (%)
Recommended phase II dose (RP2D) (adjuvant (+ TMZ) and concomitant (+ TMZ + RT) settings, 4 days on/24 days off): 30 mg
Rash and other skin-related TRAEs attributed to trotabresib only (adjuvant overall): 7 (39%) n (%)
TRAEs leading to discontinuation of TMZ, related to labelled drug(s) (adjuvant overall (N = 18)): 1 (6) 1 (6) 1 (6) n (%)
TRAEs leading to discontinuation of any study drug, related to labelled drug(s) (adjuvant overall (N = 18)): 1 (6) 1 (6) 1 (6) n (%)
TRAEs leading to discontinuation of trotabresib, related to labelled drug(s) (adjuvant overall (N = 18)): 1 (6) 1 (6) 1 (6) n (%)
TEAEs leading to discontinuation of the labelled study drug(s), patients (adjuvant overall (N = 18)): 2 (11) 2 (11) 2 (11) n (%)
ALT increased TRAE, any grade [1]: 1 (6) n (%)
ALT increased TRAE, grade 3/4 [1]: 0 n (%)
AST increased TRAE, any grade [1]: 1 (6) n (%)
AST increased TRAE, grade 3/4 [1]: 0 n (%)
Acneiform dermatitis TRAE, any grade [1]: 3 (17) n (%)
Acneiform dermatitis TRAE, grade 3/4 [1]: 0 n (%)
Anemia TRAE, any grade [1]: 4 (22) n (%)
Anemia TRAE, grade 3/4 [1]: 0 n (%)
Any TRAE, any grade [1]: 16 (89) n (%)
Any TRAE, grade 3/4 [1]: 9 (50) n (%)
Asthenia TRAE, any grade [1]: 7 (39) n (%)
Asthenia TRAE, grade 3/4 [1]: 1 (6) n (%)
Blood bilirubin increased TRAE, any grade [1]: 0 n (%)
Blood bilirubin increased TRAE, grade 3/4 [1]: 0 n (%)
Decreased appetite TRAE, any grade [1]: 6 (33) n (%)
Decreased appetite TRAE, grade 3/4 [1]: 0 n (%)
Diarrhea TRAE, any grade [1]: 11 (61) n (%)
Diarrhea TRAE, grade 3/4 [1]: 1 (6) n (%)
Dysgeusia TRAE, any grade [1]: 6 (33) n (%)
Dysgeusia TRAE, grade 3/4 [1]: 0 n (%)
Dyspepsia TRAE, any grade [1]: 2 (11) n (%)
Dyspepsia TRAE, grade 3/4 [1]: 0 n (%)
Fatigue TRAE, any grade [1]: 2 (11) n (%)
Fatigue TRAE, grade 3/4 [1]: 0 n (%)
Hyperbilirubinemia TRAE, any grade [1]: 6 (33) n (%)
Hyperbilirubinemia TRAE, grade 3/4 [1]: 1 (6) n (%)
Hyperglycemia TRAE, any grade [1]: 4 (22) n (%)
Hyperglycemia TRAE, grade 3/4 [1]: 1 (6) n (%)
Hypophosphatemia TRAE, any grade [1]: 2 (11) n (%)
Hypophosphatemia TRAE, grade 3/4 [1]: 0 n (%)
Hypotension TRAE, any grade [1]: 2 (11) n (%)
Hypotension TRAE, grade 3/4 [1]: 0 n (%)
Insomnia TRAE, any grade [1]: 2 (11) n (%)
Insomnia TRAE, grade 3/4 [1]: 0 n (%)
Intracranial hemorrhage TRAE, any grade [1]: 1 (6) n (%)
Intracranial hemorrhage TRAE, grade 3/4 [1]: 1 (6) n (%)
Leukopenia TRAE, any grade [1]: 1 (6) n (%)
Leukopenia TRAE, grade 3/4 [1]: 0 n (%)
Lymphopenia TRAE, any grade [1]: 2 (11) n (%)
Lymphopenia TRAE, grade 3/4 [1]: 1 (6) n (%)
Nausea TRAE, any grade [1]: 9 (50) n (%)
Nausea TRAE, grade 3/4 [1]: 0 n (%)
Neutropenia TRAE, any grade [1]: 5 (28) n (%)
Neutropenia TRAE, grade 3/4 [1]: 3 (17) n (%)
Pruritus TRAE, any grade [1]: 3 (17) n (%)
Pruritus TRAE, grade 3/4 [1]: 0 n (%)
Rash TRAE, any grade [1]: 5 (28) n (%)
Rash TRAE, grade 3/4 [1]: 0 n (%)
Seizure TRAE, any grade [1]: 0 n (%)
Seizure TRAE, grade 3/4 [1]: 0 n (%)
Thrombocytopenia TRAE, any grade [1]: 10 (56%) n (%) and 10 (56) n (%)
Thrombocytopenia TRAE, grade 3/4 [1]: 7 (39%) n (%) and 7 (39) n (%)
